Assay results: ChEMBL document CHEMBL3286238, “Synthesis of a novel legumain-cleavable colchicine prodrug with cell-specific toxicity” (Bioorg Med Chem, 2014)

Columns and labels:
HEK293 = assay: Cytotoxicity against HEK293 cells after 48 hrs by MTS assay; assay type: cell-based, Homo sapiens; details: for EC50: Homo sapiens, HEK293, 48 h; for EC25: human, hek293, 48 h
[1] = Cytotoxicity against human M38L cells after 48 hrs by MTS assay; assay type: cell-based; details: for EC50: Homo sapiens, M38L; for EC25: human, m38l
[2] = Potency index, ratio of EC50 for valyl colchicine to EC50 for compound against HEK293 cells after 48 hrs by MTS assay; assay type: cell-based; details: human, read-out: Ratio EC50

Structure (SMILES)	EC50 (HEK293) [nM]	EC25 (HEK293) [nM]	EC50 [1] [nM]	EC25 [1] [nM]	selectivity ratio at 48 h [2]
COc1cc2c(c(OC)c1OC)-c1ccc(OC)c(=O)cc1[C@@H](NC(=O)[C@@H](N)C(C)C)CC2.Cl	300	80	300	200	–
COc1cc2c(c(OC)c1OC)-c1ccc(OC)c(=O)cc1[C@@H](NC(C)=O)CC2 [COLCHICINE]	30	20	30	20	10
